Measurements: patent US20190002915A1, “COMPOSITIONS AND METHODS FOR REGULATABLE ANTIBODY EXPRESSION” (The Trustees of the University of Pennsylvania, priority 2015, published 2019)

Assays:
NHP eyes = test: Subretinal AAV8 regulatable antibody expression in NHP eyes (ELISA); format: in vivo, Macaca mulatta (rhesus monkeys); conditions: rapamycin IV
Protocol: For this experiment a 3 year old male Macaca mulatta (rhesus monkeys) was purchased from Covance Research Products, Inc.
For subretinal (SR) vector injections, a needle was inserted through a sclerotomy 2 mm posterior to the limbus at the 2 or 10 o'clock position. It was then advanced through the vitreous to penetrate the retina in the posterior pole. Under microscopic control, up to 100 μL of anterior chamber fluid was removed and 150 μL of viral vector solution diluted in phosphate buffered saline (PBS) was injected into the subretinal space, thereby raising a dome-shaped retinal detachment (bleb). The detachment covered a small fraction (approximately ⅛th) of the area of the retina in the macula. The NHP received AAV8 vectors injected subretinally into the left (OS) and right (OD) eyes. The two vectors that were injected were: AAV2/8.CMV.TF1Nc (alternate name for AAV2/8.CMV.TF) and AAV2/8.Z12i.AbH.FF2A.AbL.BGH. The vectors were mixed at 1:1 ratio at 10^11 GC and delivered SR in a total volume of 150 μL.
Macaques were induced at various times following the SR vector injection. Rapamycin (2 mg/kg) was delivered IV in a solution of 1.2% Tween 80, 27.1% Polyethylene Glycol, 71.7% Nuclease Free Water. At designated times post vector delivery, a tap was performed on the OD eye (baseline) and the NHP then injected IV with 2 mg/kg rapamycin. […]

nasal airways = test: Intranasal AAV9 regulatable ffLuc expression in mice after rapamycin induction (IVIS imaging); format: in vivo, C57BL/6 mice
Protocol: AAV2/9.Z12i.ffLuc and AAV2/9.CMV.Tf were used in this example. These vectors were prepared as described in S J Chen et al, Hu Gene Therapy, 24: 270-278 (August 2013). AAV2/9.Z12i.ffLuc contains:
C57BL/6 mice (6 to 8 weeks of age) were purchased from Charles River Laboratories (Wilmington, Mass.) and kept under pathogen-free conditions at the Animal Facility of the Translational Research Laboratories. Mice were anesthetized using an intraperitoneal (IP) injection of ketamine/xylazine. For vector administrations, mice were inoculated intranasally (IN) with […] in the right and left nostril for a total dose of 10^11 genome copies (GC) in 25 μL. All animal procedures were approved by the Institutional Animal Care and Use Committees of the University of Pennsylvania.
Topical (IN) application: mice were anaesthetized with ketamine/xylazine and 5 mins later 5 μL of rapamycin solution for a total dose of 10 mg/kg was delivered to the right and left nostril IN. Systemic (IP) application: mice were physically restrained and injected IP with 50 μL of a 1 mg/mL rapamycin solution.
Mice were anaesthetized with ketamine/xylazine and 5 mins later 10 μL of 15 mg/ml D-luciferin (Caliper, USA) was delivered to the right and left nostril IN. Five mins later mice were imaged using the IVIS® Xenogen imaging system [Perkin-Elmer]. Quantitation of signal was calculated using the Living Image® 3.0 Software.
The level of gene expression achieved in the nasal airways following rapamycin induction was examined. Briefly, C57B1/6 mice (n=5/group) were dosed with 10^11 GC of both AAV2/9.Z12i.ffLuc and AAV2/9.CMV.Tf in a volume of 25 μL (12.5 μL per nostril). As negative controls, groups of mice were dosed with a) AAV2/9.Z12i.ffLuc alone, b) AAV2/9.CMV.Tf alone and c) PBS mice. As a positive control for the maximal expression of ffLuc, mice (n=5) were injected with AAV2/9.CMV.ffluc. To maximize the safety of the inducible vector system we opted to restrict expression to the nasal epithelium by delivering rapamycin topically (directly to the nose) or systemically (IP).

[1] = system: Z12i promoter ffLuc reporter in HEK293 cells; test: ffLuc reporter induction under Z12i promoter in transfected HEK293 cells; format: cell-based; conditions: TF cis-plasmids plus Z12i-ffLuc reporter, rapamycin versus rapalog, all TF systems tested
Protocol: Cis plasmid constructs having the following elements, from 5′ to 3′ were constructed: promoter, nuclear localization signal (NLS), FRAPL (lipid kinase homolog having rapamycin binding domain), p65 of human NF-κB (transcriptional activation domain), IRES, zinc finger (DNA binding domain), 2 or 3 copies of FK506 binding protein as shown below, and a poly A.
These cis plasmids were tested for in HEK293 cells for the ability to induce expression of ffLuc reporter gene under the control of Z12i promoter, consisting of 12 ZFHD binding sites followed by minimal IL2 promoter. Briefly, HEK293 cells were transfected with cis-plasmids along with the reporter constructs. 24-72 hours post transfection, cells were treated with various concentrations of either rapamycin (sirolimus) or rapalog AP22594 as indicated in FIG. 5. Expression of ffLuc was assessed using dual luciferase detection kit from Promega according to manufacturer's instructions. […] Antibodies normally are secreted into supernatant buy the transfected cells. In this experiment, transfection was performed using lipofectamine according to the manufacturer's instructions, and induction was carried out the next day after transfection using indicated amounts of rapalog. At 72 hours post transfection, supernatants were harvested and expression of anti-SIV antibody was assessed using antigen specific ELISA or protein A ELISA. […]

[2] = IM AAV8 Z12i-immunoadhesin plus TF vectors in RAG KO mice, AP22594 induction, protein A ELISA; format: in vivo; conditions: post AAV8 administration
Protocol: RAG KO mice were purchased from Jackson labs. Z12i-2014A and TF plasmids were packaged into AAV8 vectors using triple transfection method. Vectors were titered using qPCR. […] First induction with AP22594 was carried out on day 13 after AAV8 administration. AP22594 was administered IP at a dose of 1 mg/kg. On day 21 post AAV8 administration, orbital bleeds were collected and the level of circulating 2011A antibody was measured by protein A ELISA. The data is presented on FIG. 8.

[3] = stated as consistent with the time frame of decline; cited from earlier work
[4] = three separate IN rapamycin inductions over three months

Molecule: CO[C@H]1C[C@@H]2CC[C@@H](C)[C@@](O)(O2)C(=O)C(=O)N2CCCC[C@H]2C(=O)O[C@H]([C@H](C)C[C@@H]2CC[C@@H](O)[C@H](OC)C2)CC(=O)[C@H](C)/C=C(\C)[C@@H](O)[C@@H](OC)C(=O)[C@H](C)C[C@H](C)/C=C/C=C/C=C/1C [rapamycin]
- time to wane to background undetectable levels (NHP eyes): ≤ 3 months
- peak of antibody expression post induction (NHP eyes; several inductions over 4 years): 14 days
- time for ffLuc expression to reach background levels (nasal airways; IN or IP rapamycin induction): ≤ 7 days
- time until which ffLuc expression remained stable (nasal airways; IN or IP rapamycin induction): 48 h
- time to maximal ffLuc expression after induction (nasal airways; IN or IP rapamycin induction, AAV2/9.Z12i.ffLuc plus AAV2/9.CMV.Tf IN): ≤ 24 h
- signs of behavioral distress (nasal airways; rapamycin delivered to the nose or systemically): did not exhibit any signs of behavioral distress
- time at which expression began to decline (nasal airways; [4]): 72 h
- time to maximal induction (nasal airways; [4]): ≤ 24 h
- time to which induction was stable (nasal airways; [4]): 48 h

Molecule: COC1CC2CCC(C)C(O)(O2)C(=O)C(=O)N2CCCCC2C(=O)OC(C(C)CC2CCC(O)C(OC)C2)CC(=O)C(C)C=C(C)C(O)C(OC)C(=O)C(C)CC(C)C=CC=CC=C1C (stereo not drawn) [AP22594, 28-epi-rapamycin]
- induction of transgene (ffLuc) expression [1]: comparable levels of induction of transgene expression
- day induced expression returned to barely detectable [2]: 49 days
- day induced expression started to decline [2]: 35 days
- day of peak induced expression ([2]; data not shown): 28 days

B1: 2011A antibody: immunoadhesin expressed from the Z12i construct in AAV8 (protein)
chain: EVQLLESGPGLVKPSETLSLTCAVSGLSISSDFSWAWIRQTPGKALEYVGYIRGNTGDTYYNPSLKSRLTISKDTSKNQIYLNLSSVTAGDAAVYYCARDRVCDDDYGYYYTEVCFGLDSWGQGIVVTVSSGGGGSGGGGSGGGGSAELVMTQSPLSLSVAPGQTASISCRSSQSLDYANGNTYLSWFHQRPGQPPRRLIYQISNRDSGVPDRFSGSGAGTEFTLRISRMESDDVGIYYCGQGTTFPRTFGQGTKVEIKTCGGGSKPPTCPPCTSPELLGGPSVFLFPPKPKDTLMISRTPEVTCVVVDVSQEDPDVKFNWYVNGAEVHHAQTKPRETQYNSTYRVVSVLTVTHQDWLNGKEYTCKVSNKALPAPIQKTISKDKGQPREPQVYTLPPSREELTKNQVSLTCLVKGFYPSDIVVEWESSGQPENTYKTTPPVLDSDGSYFLYSKLTVDKSRWQQGNVFSCSVMHEALHNHYTQKSLSLSPGK
- antibody half-life [3]: 1-2 weeks
